Assay results published in PMC10611619, “[^99mTc]Tc-PentixaTec: development, extensive pre-clinical evaluation, and first human experience” (European Journal of Nuclear Medicine and Molecular Imaging, 2023).
Where a SMILES comes first, the peptide text is derived from it. Side-chain parts run from the residue outwards. [ ]: non-standard residue; d: D form. The star is where a group is joined. 2Nal = N[C@@H](Cc1ccc2ccccc2c1)C(=O)O; dNMeOrn = CN[C@H](CCCN)C(=O)O; 4Abz = Nc1ccc(C(=O)O)cc1; X1 = NCCNCC(CNCCN)C(=O)*; dDap = NC[C@@H](N)C(=O)O

Test: Patient radiation dosimetry (OLINDA/EXM, RADAR/MIRD)
Format: in vivo, human
Conditions: for Absorbed organ dose Adrenals / Absorbed organ dose Brain / Absorbed organ dose Breast / Absorbed organ dose Gallbladder wall / Absorbed organ dose Heart wall / Absorbed organ dose Kidneys / Absorbed organ dose LLI wall / Absorbed organ dose Liver / Absorbed organ dose Lungs / Absorbed organ dose Muscle / Absorbed organ dose Osteogenic cells / Absorbed organ dose Ovaries / Absorbed organ dose Pancreas / Absorbed organ dose Red marrow / Absorbed organ dose Skin / Absorbed organ dose Small intestine / Absorbed organ dose Spleen / Absorbed organ dose Stomach wall / Absorbed organ dose Testes / Absorbed organ dose Thymus / Absorbed organ dose Thyroid / Absorbed organ dose Total body / Absorbed organ dose ULI wall / Absorbed organ dose Urinary bladder wall / Absorbed organ dose Uterus: per 1 MBq
Description: Radiation dosimetry calculations were performed using the RADAR (Radiation Dose Assessment Resource) method as implemented in the OLINDA/EXM software and according to the recommendations of the Medical Internal Radiation Dose (MIRD) committee. The individual absorbed organ doses (ODs) and the effective doses (EDs) were corrected to consider the current tissue weighting factors of ICRP 103 [38]. For a detailed description of image analysis for dosimetry, please refer to the supplementary materials section.
The Xeleris^TM Dosimetry Toolkit (GE Healthcare, Milwaukee, USA) was used to perform full organ segmentation by an experienced user. This was performed manually on CT images of organs (kidneys, liver, spleen, heart, lungs, lumbar vertebrae 2-4) to define the regions and volumes of interest (VOIs) for gamma camera scans and SPECT analysis. Quantification of the activity in the VOIs was carried out as converting counts in the VOIs by a calibration factor to the average activity per milliliter and per organ.
The VOIs were transferred from SPECT/CT to the planar images. Additional ROIs for the whole body and a background region adjacent to the head were drawn on the planar images.
The VOIs were used to determine the masses of the individual organs. For the lungs, a density of 0.288 g/mL was used. For all organs not covered by any VOI, the uptake was summed as the contribution from the remainder of the body in the dose calculation.
The time-integrated activity coefficients of all contoured organs were determined using the hybrid planar/SPECT method. Thus, the shape of the time-activity curves were estimated based on the planar images using the NUKFIT software and then scaled to activity values using the SPECT/CT. The accumulated activity in the bone marrow was calculated using the activity in the lumbar vertebrae 2-4 with the assumption that these contain 6.7% of the red bone marrow.
Radiation dosimetry calculations were performed using the RADAR (Radiation Dose Assessment Resource) method as implemented in the OLINDA/EXM software and according to the recommendations of the Medical Internal Radiation Dose (MIRD) committee. The OLINDA/EXM application (version 1.0) was used to calculate the individual absorbed organ doses (ODs) and the effective doses (EDs) by using the time-integrated activity coefficients and the individual patients’ organ masses. A mass of 1500 g for the red bone marrow as assumed for all patients. The EDs were afterwards corrected to consider the current tissue weighting factors of ICRP 103 [16]. The absorbed OD and ED were evaluated for each patient and then averaged across all the patients.

SMILES: C[C@@H](NC(=O)[C@@H](CCCNC(=N)N)NC(=O)[C@@H](CN)NC(=O)C(CNCCN)CNCCN)C(=O)Nc1ccc(C(=O)NCCC[C@@H]2C(=O)N[C@@H](CCCNC(=N)N)C(=O)N[C@@H](Cc3ccc4ccccc4c3)C(=O)NCC(=O)N[C@H](Cc3ccc(O)cc3)C(=O)N2C)cc1 [[^99mTc]Tc-N4-L6-CPCR4, [^99mTc]Tc-N4-dap-r-a-Abz-CPCR4, metal not drawn] (cyclo([dY][dNMeOrn]([4Abz-dA-dR-dDap-X1])R[2Nal]G))
- absorbed dose bone marrow, median (four patients): 9.40E − 03 mGy/MBq
- absorbed dose bone marrow, range (four patients): 6.2E − 03–13.50E − 03 mGy/MBq
- absorbed dose kidneys, median (four patients): 1.23E − 02 mGy/MBq
- absorbed dose kidneys, range (four patients): 0.94 E − 02–1.37E − 02 mGy/MBq
- absorbed dose spleen, median (four patients): 1.95E − 02 mGy/MBq
- absorbed dose spleen, range (four patients): 1.61E − 02–2.38E − 02 mGy/MBq
- effective dose per unit of administered activity, median (four patients): 5.3E − 03 mSv/MBq
- effective dose per unit of administered activity, range (four patients): 4.3E − 03–6.7E − 03 mSv/MBq
- Absorbed organ dose Adrenals (Median): 0.0065 mGy
- Absorbed organ dose Brain (Median): 0.0030 mGy
- Absorbed organ dose Breast (Median): 0.0025 mGy
- Absorbed organ dose Gallbladder wall (Median): 0.0060 mGy
- Absorbed organ dose Heart wall (Median): 0.0044 mGy
- Absorbed organ dose Kidneys (Median): 0.0123 mGy
- Absorbed organ dose LLI wall (Median): 0.0048 mGy
- Absorbed organ dose Liver (Median): 0.0077 mGy
- Absorbed organ dose Lungs (Median): 0.0063 mGy
- Absorbed organ dose Muscle (Median): 0.0035 mGy
- Absorbed organ dose Osteogenic cells (Median): 0.0136 mGy
- Absorbed organ dose Ovaries (Median): 0.0050 mGy
- Absorbed organ dose Pancreas (Median): 0.0070 mGy
- Absorbed organ dose Red marrow (Median): 0.0094 mGy
- Absorbed organ dose Skin (Median): 0.0023 mGy
- Absorbed organ dose Small intestine (Median): 0.0049 mGy
- Absorbed organ dose Spleen (Median): 0.0195 mGy
- Absorbed organ dose Stomach wall (Median): 0.0051 mGy
- Absorbed organ dose Testes (Median): 0.0026 mGy
- Absorbed organ dose Thymus (Median): 0.0036 mGy
- Absorbed organ dose Thyroid (Median): 0.0033 mGy
- Absorbed organ dose Total body (Median): 0.0037 mGy
- Absorbed organ dose ULI wall (Median): 0.0049 mGy
- Absorbed organ dose Urinary bladder wall (Median): 0.0041 mGy
- Absorbed organ dose Uterus (Median): 0.0047 mGy
- Absorbed organ dose Adrenals (Patient 1): 0.0053 mGy
- Absorbed organ dose Brain (Patient 1): 0.0023 mGy
- Absorbed organ dose Breast (Patient 1): 0.0021 mGy
- Absorbed organ dose Gallbladder wall (Patient 1): 0.0051 mGy
- Absorbed organ dose Heart wall (Patient 1): 0.0040 mGy
- Absorbed organ dose Kidneys (Patient 1): 0.0137 mGy
- Absorbed organ dose LLI wall (Patient 1): 0.0037 mGy
- Absorbed organ dose Liver (Patient 1): 0.0066 mGy
- Absorbed organ dose Lungs (Patient 1): 0.0051 mGy
- Absorbed organ dose Muscle (Patient 1): 0.0028 mGy
- Absorbed organ dose Osteogenic cells (Patient 1): 0.0099 mGy
- Absorbed organ dose Ovaries (Patient 1): 0.0040 mGy
- Absorbed organ dose Pancreas (Patient 1): 0.0055 mGy
- Absorbed organ dose Red marrow (Patient 1): 0.0065 mGy
- Absorbed organ dose Skin (Patient 1): 0.0018 mGy
- Absorbed organ dose Small intestine (Patient 1): 0.0041 mGy
- Absorbed organ dose Spleen (Patient 1): 0.0161 mGy
- Absorbed organ dose Stomach wall (Patient 1): 0.0040 mGy
- Absorbed organ dose Testes (Patient 1): 0.0023 mGy
- Absorbed organ dose Thymus (Patient 1): 0.0030 mGy
- Absorbed organ dose Thyroid (Patient 1): 0.0028 mGy
- Absorbed organ dose Total body (Patient 1): 0.0028 mGy
- Absorbed organ dose ULI wall (Patient 1): 0.0040 mGy
- Absorbed organ dose Urinary bladder wall (Patient 1): 0.0033 mGy
- Absorbed organ dose Uterus (Patient 1): 0.0038 mGy
- Absorbed organ dose Adrenals (Patient 2): 0.0078 mGy
- Absorbed organ dose Brain (Patient 2): 0.0032 mGy
- Absorbed organ dose Breast (Patient 2): 0.0028 mGy
- Absorbed organ dose Gallbladder wall (Patient 2): 0.0068 mGy
- Absorbed organ dose Heart wall (Patient 2): 0.0049 mGy
- Absorbed organ dose Kidneys (Patient 2): 0.0117 mGy
- Absorbed organ dose LLI wall (Patient 2): 0.0053 mGy
- Absorbed organ dose Liver (Patient 2): 0.0087 mGy
- Absorbed organ dose Lungs (Patient 2): 0.0079 mGy
- Absorbed organ dose Muscle (Patient 2): 0.0038 mGy
- Absorbed organ dose Osteogenic cells (Patient 2): 0.0162 mGy
- Absorbed organ dose Ovaries (Patient 2): 0.0054 mGy
- Absorbed organ dose Pancreas (Patient 2): 0.0083 mGy
- Absorbed organ dose Red marrow (Patient 2): 0.0135 mGy
- Absorbed organ dose Skin (Patient 2): 0.0024 mGy
- Absorbed organ dose Small intestine (Patient 2): 0.0053 mGy
- Absorbed organ dose Spleen (Patient 2): 0.0238 mGy
- Absorbed organ dose Stomach wall (Patient 2): 0.0057 mGy
- Absorbed organ dose Thymus (Patient 2): 0.0040 mGy
- Absorbed organ dose Thyroid (Patient 2): 0.0032 mGy
- Absorbed organ dose Total body (Patient 2): 0.0039 mGy
- Absorbed organ dose ULI wall (Patient 2): 0.0055 mGy
- Absorbed organ dose Urinary bladder wall (Patient 2): 0.0043 mGy
- Absorbed organ dose Uterus (Patient 2): 0.0049 mGy
- Absorbed organ dose Adrenals (Patient 3): 0.0083 mGy
- Absorbed organ dose Brain (Patient 3): 0.0039 mGy
- Absorbed organ dose Breast (Patient 3): 0.0032 mGy
- Absorbed organ dose Gallbladder wall (Patient 3): 0.0073 mGy
- Absorbed organ dose Heart wall (Patient 3): 0.0054 mGy
- Absorbed organ dose Kidneys (Patient 3): 0.0128 mGy
- Absorbed organ dose LLI wall (Patient 3): 0.0062 mGy
- Absorbed organ dose Liver (Patient 3): 0.0089 mGy
- Absorbed organ dose Lungs (Patient 3): 0.0075 mGy
